Key:
estrogen receptor [1] = assay: Luciferase assay (3×ERE TATA luc), MCF7 cell line; format: cell-based, human; details: for Luciferase activity (-fold): MCF7, 24 h, non-treated group = 1; for Estrogen receptor subtype through which the substance acts (luciferase assay with siERα / siERβ): MCF-7 breast cancer cells, siRNA 50 nM
Experimental: (§1) MCF-7 (estrogen receptor-positive human breast cancer cell line), Ishikawa (estrogen receptor-positive endometrial cancer cell line), and MG-63 (human osteosarcoma; osteoblast-like cell line) were obtained from the American Type Culture Collection (ATCC). BG-1 (uterine cancer cell line) was furnished by courtesy of Dr. Korach (NIH, USA). Cells were cultured in a Dulbecco's modified Eagle's medium (DMEM) containing 10% fetal bovine serum (FBS), 100 U/ml penicillin and 100 U/ml streptomycin, at 37° C. and 5% CO2.
(§2) The luciferase assay is an assay of estimating an estrogenic activity by measuring the degree of a luciferase activity generated upon binding of a substance having an estrogenic activity to an estrogen receptor. This assay was carried out in the following procedure. Unless otherwise specified, the reagents used were purchased from Gibco (Karlwruhe, Germany).
(§3) The luciferase reporter plasmid used was 3×ERE TATA luc. (Addgene, Cambridge, USA). In order to control transfection efficiency, phRenilla-luciferase-CMV (Promega, Mannheim, Germany) as an internal control plasmid was co-transfected. Cells were cultured at a density of 2×10^5 cells/well in a 6-well plate, in a phenol red-free DMEM (Dulbecco's modified Eagle's medium) supplemented with 100 U/ml penicillin, […] streptomycin, 1 mM sodium pyruvate, 1 mM glutamine, and 10% charcoal dextran-treated fetal bovine serum (FBS). After the cells were cultured to a 50 to 60% confluence, the medium was removed, the cells were placed at 37° C. and 5% CO2 for 6 hours on a serum-free OPTI-MEM medium containing plasmid DNA constructs and 2 μg/ml of polyethyleneimine (PEI), according to the manufacturer's instructions. 1 μg/well of 3×ERE TATA luc and 100 ng of a phRL-CMV plasmid were subjected to transfection.
(§4) After the period of transfection, the medium was replaced with a phenol-free DMEM supplemented with 10% charcoal dextran-treated FBS, and the cells were cultured at 37° C. and 5% CO2 overnight prior to treatment of eupatilin.
(§5) After 18 hours of culture, the medium was replaced with a eupatilin-containing medium. The proteins were extracted 24 hours later, and firefly and renilla luciferase activities were measured on a luminometer (Molecular Devices, Sunnyvale, Calif.) using a Dual Luciferase Assay kit (Promega, Madison, Wis.) according to the manufacturer's instructions.
(§6) All experiments were carried out in triplicate and were repeated at least three times. For the luciferase assay, total cell lysates were prepared, the firefly luciferase activity was assayed and normalized to the renilla luciferase activity according to the manufacturer's instructions (Promega). Further, in order to knock down the cell levels of specific proteins, cells with co-transfection of small interfering RNAs (siRNAs) together with 3×ERE TATA luc and phRL-CMV were prepared and subjected to the same treatment of eupatilin or the like as in the cells which were not treated with siRNAs. The siRNAs used were purchased from Bioneer Corporation (Daejeon, South Korea) and treated at a concentration of 50 nM. The “siERα” means siRNA which inhibits the expression of ERα, and the “siERβ” means siRNA which inhibits the expression of ERβ.

estrogen receptor [2] = assay: Luciferase assay (3×ERE TATA luc), BG-1 cell line; format: cell-based; details: 24 h, non-treated group = 1
Experimental: as §1, §2
as §3, with “1 μg/well of 3×ERE TATA luc and 100 ng of a phRL-CMV plasmid were subjected to transfection.” left out
After 18 hours of culture, the medium was replaced with a eupatilin-containing medium. The proteins were extracted 24 hours later, and firefly and renilla luciferase activities were measured on a luminometer (Molecular Devices, Sunnyvale, Calif.) using a Dual Luciferase Assay kit (Promega, Madison, Wis.) according to the manufacturer's instructions. […]

estrogen receptor [3] = assay: Luciferase assay (3×ERE TATA luc), Ishikawa cells; format: cell-based; details: for Estrogen receptor subtype through which the substance acts (luciferase assay with siERα / siERβ): Ishikawa endometrial cancer cells, siRNA 50 nM; for Luciferase activity (-fold): Ishikawa, 24 h, non-treated group = 1
Experimental: as §1, §2, §3, §4, §5, §6

estrogen receptor [4] = target: T1, estrogen receptor (Homo sapiens, UniProt Q92731); assay: Luciferase assay (3×ERE TATA luc), MG63 cell line; format: cell-based; details: for Luciferase activity (-fold): MG63, 24 h, non-treated group = 1
T1 construct: MG-63 (human osteosarcoma; osteoblast-like cell line); endogenous in cells; host or cells: MG-63
T1 sequence (Q92731 whole entry): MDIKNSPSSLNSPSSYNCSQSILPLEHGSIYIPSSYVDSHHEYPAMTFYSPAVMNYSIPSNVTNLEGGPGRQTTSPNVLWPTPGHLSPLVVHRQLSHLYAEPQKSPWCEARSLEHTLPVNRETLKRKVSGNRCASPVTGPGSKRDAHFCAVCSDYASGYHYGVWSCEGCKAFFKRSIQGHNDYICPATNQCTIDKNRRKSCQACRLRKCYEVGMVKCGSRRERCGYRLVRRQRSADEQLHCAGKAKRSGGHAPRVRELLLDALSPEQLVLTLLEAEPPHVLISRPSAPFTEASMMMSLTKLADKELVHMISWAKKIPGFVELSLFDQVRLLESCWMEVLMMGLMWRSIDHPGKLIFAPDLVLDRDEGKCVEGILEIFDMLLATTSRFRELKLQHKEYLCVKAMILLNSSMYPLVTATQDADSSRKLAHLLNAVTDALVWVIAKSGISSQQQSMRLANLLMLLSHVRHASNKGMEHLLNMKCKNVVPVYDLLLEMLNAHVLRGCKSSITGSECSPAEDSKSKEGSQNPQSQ
Experimental: as §1, §2, §3, §4, §5
All experiments were carried out in triplicate and were repeated at least three times. For the luciferase assay, total cell lysates were prepared, the firefly luciferase activity was assayed and normalized to the renilla luciferase activity according to the manufacturer's instructions (Promega). […]

MCF7 breast cancer cells = assay: MTT assay, cancer cell growth; format: cell-based, human; details: 48 h, control DMSO
Experimental: Cell viability was estimated by the MTT (3-[4,5-dimethylthiazol-2-yl]-2,5-diphenyltetrazolium bromide; Sigma-Aldrich) assay to confirm cancer cell growth inhibitory effects of eupatilin.
MCF7 breast cancer cells were seeded onto a 96-well plate and incubated for 24 hours. […] On the day of collection, 50 μl of MTT solution (5 mg/ml in PBS) was added to the medium, followed by incubation at 37° C. for 4 hours. The MTT-containing medium was removed and the cells were solubilized in DMSO (100 μl) for 30 min. The cell viability was determined in terms of an optical density at 540 nm using a microplate spectrophotometer (SpectraMax; Molecular Devices, Sunnyvale, Calif.).
Ethanol which is a vehicle was served as control for the E2-treated group, and DMSO was served as control for the eupatilin-treated group.
The viability is expressed in terms of a relative ratio by taking a value of the control to be 100, and the lethality is also expressed in terms of a relative ratio by taking a value of the control to be 100.

MG-63 cells = assay: ALP activity in osteoblastic cells; format: cell-based, human; details: 24 h
Experimental: The ALP activity in MG-63 cells treated with eupatilin was measured to confirm that eupatilin enhances a bone density in osteoblastic cells. […] Based on the fact that ALP degrades p-nitrophenylphosphate into p-nitrophenol and phosphate, effects of eupatilin on osteoblasts were observed by measuring an ALP activity in terms of an absorbance ratio between the absorbance of each substance and the absorbance of the control at 405 nm.
After 24 hours of the treatment, lysates were prepared and slowly shaken for 30 min. Then, the ALP activity was assayed by measuring the release of p-nitrophenol from p-nitrophenylphosphate (20 mM in 1M diethanolamine buffer supplemented with MgCl2 at pH 9.8). The absorbance was measured at 405 nm. The standard curve was drawn using various concentrations of […] within the range of 0 to 0.1 U/ml PBS-T. The ALP values were adjusted for the protein content of the corresponding cell lysates. The cultures protein content was quantified by means of a bicinchoninic acid protein assay (Thermo Scientific). The results obtained were compared with those of the control to which only BSA was added at a concentration of 100 nM and no specimen was added.

COc1ccc(-c2cc(=O)c3c(O)c(OC)c(O)cc3o2)cc1OC [Eupatilin, 5,7-dihydroxy-3′,4′,6-trimethoxyflavone]
Luciferase activity (-fold) (estrogen receptor [1]; eupatilin 0.01 μg/ml): 2.4 -fold
Luciferase activity (-fold) (estrogen receptor [1]; eupatilin 0.1 μg/ml): 2.3 -fold
Luciferase activity (-fold) (estrogen receptor [1]; eupatilin 1 μg/ml): 2.8 -fold
Estrogen receptor subtype through which the substance acts (luciferase assay with siERα / siERβ) (estrogen receptor [1]; eupatilin 0.1 or 1.0 μg/ml, FIG. 3): acts equally on both ERα and ERβ
Luciferase activity (-fold) (estrogen receptor [2]; eupatilin 0.01 μg/ml): 2.9 -fold
Luciferase activity (-fold) (estrogen receptor [2]; eupatilin 0.1 μg/ml): 3.3 -fold
Luciferase activity (-fold) (estrogen receptor [2]; eupatilin 1 μg/ml): 3.7 -fold
Estrogen receptor subtype through which the substance acts (luciferase assay with siERα / siERβ) (estrogen receptor [3]; eupatilin 0.1 or 1.0 μg/ml, FIG. 4): acts equally on both ERα and ERβ
Luciferase activity (-fold) (estrogen receptor [3]; eupatilin 0.01 μg/ml): 1.4 -fold
Luciferase activity (-fold) (estrogen receptor [3]; eupatilin 0.1 μg/ml): 1.9 -fold
Luciferase activity (-fold) (estrogen receptor [3]; eupatilin 1 μg/ml): 2.9 -fold
Luciferase activity (-fold) (estrogen receptor [4]; eupatilin 0.01 μg/ml): 2.1 -fold
Luciferase activity (-fold) (estrogen receptor [4]; eupatilin 0.1 μg/ml): 1.7 -fold
Luciferase activity (-fold) (estrogen receptor [4]; eupatilin 1 μg/ml): 1.6 -fold
Estrogen receptor subtype through which the substance acts (luciferase assay with siERα / siERβ) (estrogen receptor [4]; MG-63 osteoblastic cells, siRNA 50 nM, eupatilin 0.1 or 1.0 μg/ml, FIG. 6): acts selectively on ERβ
Cell lethality (% relative to control) (MCF7 breast cancer cells; eupatilin 0.1 μg/ml): 21.5 % relative to control
Cell lethality (% relative to control) (MCF7 breast cancer cells; eupatilin 1 μg/ml): 24.5 % relative to control
ALP activity (% relative to control) (MG-63 cells; eupatilin 0.2 μg/ml): 20.5 % relative to control
ALP activity (% relative to control) (MG-63 cells; eupatilin 2.0 μg/ml): 60 % relative to control

C[C@]12CC[C@@H]3c4ccc(O)cc4CC[C@H]3[C@@H]1CC[C@@H]2O [E2, 17-β-estradiol, reference compound]
Estrogen receptor subtype through which the substance acts (luciferase assay with siERα / siERβ) (estrogen receptor [1]; E2 10^−7 M, FIG. 1): largely induces cell proliferation via only ERα
Estrogen receptor subtype through which the substance acts (luciferase assay with siERα / siERβ) (estrogen receptor [3]; E2 10^−7 M, FIG. 2): largely induces cell proliferation via only ERα
